Reference: patent publication US11166934B2 (Azcuris Co., Ltd., priority 2017, dated 2021)
Where two headings read alike, the source gives them in different places.

Legend:
[1] = tested on: TSLP-mediated phosphorylation of STAT5 in HMC-1 human mast cell line; assay: Cell-based efficacy evaluation using FACS: intracellular phosphorylation of STAT5 after TSLP treatment of HMC-1 cells; settings: for Degrees of intracellular phosphorylation of STAT5 molecules (%): HMC-1 cells, TSLP 100 ng/mL, 30 min, control treated with TSLP alone = 100%
Method: The binding of TSLP to TSLP receptor activates various signaling pathways, mainly the JAK/STAT pathway. TSLP-mediated signaling is well known to specifically phosphorylate STAT5 among STAT molecules.
In this example, this fact was confirmed through the following experiment.
First, HMC-1, a human mast cell line, was cultured until an appropriate number of cells were maintained in a 96-well plate. […] Cells were fixed with Cytofix. Subsequently, cells were permeabilized with a permeabilization buffer and stained with anti-pSTAT5 antibody at 4° C. for 30 min. Cells were washed three times with the same buffer and analyzed by flow cytometry. […] The intracellular phosphorylation of STAT5 molecules in the control was 100%.

[2] = biological target: binding of TSLP to TSLPR (Homo sapiens, UniProt Q969D9); assay: ELISA-based TSLP-TSLPR interaction assay (FLAG-TSLP, TSLPR-His, HRP); settings: for inhibitory effects on the binding of TSLP to TSLP receptor (in words): treated alone
Chain of binding of TSLP to TSLPR (Q969D9 29-159): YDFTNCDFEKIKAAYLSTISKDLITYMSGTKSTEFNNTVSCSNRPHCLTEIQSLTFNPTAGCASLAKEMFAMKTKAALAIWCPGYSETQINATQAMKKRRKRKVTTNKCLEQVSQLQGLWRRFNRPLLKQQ

[3] = read-out: TSLP-TSLPR inhibitions (%)

Row | Compound | inhibition at 150 µM [2, 3] [%] | inhibition at 300 µM [2, 3] [%] | inhibitory effects on the binding of TSLP to TSLP receptor (in words) [2] | also measured
1 | O=c1cc(-c2ccccc2)oc2cc(O)c(O)c(O)c12 [Formula 1, baicalein] | – | – | – | Degrees of intracellular phosphorylation of STAT5 molecules (%) ([1]; 3 μM): 65.7%; Degrees of intracellular phosphorylation of STAT5 molecules (%) ([1]; 10 μM): 61.6%; effect on phosphorylation of STAT5 molecules (in words) ([1]; summary of Table 1): inhibit the phosphorylation of STAT5 molecules; inhibition at 100 µM ([2]; read-out: TSLP-TSLPR inhibitions (%), 0.1 mM, Table 5): 3.2 ± 1.3%; inhibition at 300 µM ([2]; read-out: TSLP-TSLPR inhibitions (%), 0.3 mM, Table 2): 45.8 ± 0.7%; inhibition at 300 µM ([2]; read-out: TSLP-TSLPR inhibitions (%), 0.3 mM, Table 6): 16.5 ± 1.6%
2 | O=c1c(O)c(-c2ccc(O)cc2)oc2cc(O)cc(O)c12 [Formula 3, kaempferol] | 0.6 ± 3.7 | – | – | –
3 | CN(C)CCn1c(=O)c2nc(-c3ccccc3)oc2c2ccccc21 [Formula 5, 5-(2-(dimethylamino)ethyl)-2-phenyloxazolo[4,5-c]quinolin-4(5H)-one] | 10.2 ± 17 | 21.6 ± 3.4 | insignificant inhibitory effects | inhibition at 100 µM [2, 3]: 6.5 ± 8.6%
4 | CN(C)CCOc1nc2ccccc2c2oc(-c3ccccc3)nc12 [Formula 6, N,N-dimethyl-2-((2-phenyloxazolo[4,5-c]quinolin4-yl)oxy)ethanamine] | 5.4 ± 0.7 | 19.3 ± 3 | insignificant inhibitory effects | –
5 | O=C1/C(=C2\Nc3ccccc3C2=O)Nc2ccccc21 [Formula 4, indigo dye] | 3.5 ± 2.7 | – | – | –
6 | Oc1ccc(-c2[o+]c3cc(O)cc(O)c3cc2O)cc1 [Formula 2, pelargonidin chloride] | 6.3 ± 0.1 | 13.1 ± 5.8 | – | –
